Results from patent US8518923B2, “Treatment or prevention of hypertensive disorders of pregnancy or fetal growth retardation” (Pantarhei Bioscience B.V., priority 2007, dated 2013).

Columns and labels:
[1] = test system: subcutaneous arteries; experiment: Ex-vivo relaxation response in subcutaneous arteries on pressure myograph; parameters: species or system human; settings: arteries from normal pregnant women, concentration response (FIG. 2)
Excerpt: (§1) To evaluate acute dilatory responses to estetrol in human vasculature ex-vivo, the following study has been conducted. Myometrial arteries and subcutaneous arteries (diameter: 220 μm; length: 2-3 mm) were dissected from normal pregnant women undergoing planned caesarian section. Myometrial arteries are present in the uterus and are branches from the arteria uterina. Cigarette smokers and women with hypertension, diabetes mellitus, clinical manifestations of arteriosclerosis (CHD, peripheral artery disease, cerebrovascular disease), venous thromboembolic disease, liver disorders, unexplained vaginal bleeding, and personal or family history of breast cancer were excluded. None had received HRT, other steroid hormones, or any medication known to affect lipoprotein metabolism or blood pressure. The dissected arteries were mounted on a pressure myograph (LSI, USA). The organ bath was perfused (7 ml/min) with PSS (mM: NaCl 119, KCl 4.7, CaCl2 2.5, MgSO4 1.17, NaHCO3 25, KH2PO4 1.18, EDTA 0.026 and glucose 5.5; pH 7.4, 37° C., gassed with 5% CO2 in O2). […] FIG. 2 depicts the response curve of estetrol and PPT in the subcutaneous arteries. Again, the number of subjects is mentioned in parenthesis.

[2] = test system: Myometrial arteries; experiment: Ex-vivo relaxation response in myometrial arteries on pressure myograph; parameters: species or system human; settings: for relaxation in myometrial arteries: arteries from normal pregnant women, pressure myograph, concentration response (FIG. 1)
Excerpt: as §1, with “FIG. 1” for “FIG. 2”, “the myometrial” for “the subcutaneous”, “arteries. The” for “arteries. Again, the”

Structure (SMILES) | relaxation in subcutaneous arteries [1] | relaxation in myometrial arteries [2] | selective effect: relaxation in myometrial arteries compared to subcutaneous arteries ([2]; comparison of FIGS. 1 and 2)
CCCc1c(-c2ccc(O)cc2)nn(-c2ccc(O)cc2)c1-c1ccc(O)cc1 [PPT, [1H]-pyrazole-1,3,5-tri-trisphenol, reference compound] | capable of inducing relaxation | capable of inducing relaxation | –
C[C@]12CC[C@@H]3c4ccc(O)cc4CC[C@H]3[C@@H]1[C@@H](O)[C@@H](O)[C@@H]2O [estetrol, 1,3,5 (10)-estratrien-3,15α,16α,17β-tetrol] | capable of inducing relaxation | capable of inducing relaxation | more pronounced in the myometrial arteries compared to the subcutaneous arteries
